Measurements as given in US12673975B2, “Cyclic peptide, cell scaffold material, cell separating material, and medium” (FUJIFILM Corporation, priority 2019, dated 2026).
Read-outs that look alike come from different tables or passages of the source. Starred links: 1 amine or outer side, 2 acyl side, 3 side chain; linkers in the order of their positions; H or OH if unused. Positions of bridges follow the written chain, without caps; N, C: chain ends. Non-standard residues stand in square brackets, D forms with d. Residues, ends and D or L forms follow the SMILES beside them. Pen = CC(C)(S)[C@H](N)C(=O)O; hCys = N[C@@H](CCS)C(=O)O; Orn = NCCC[C@H](N)C(=O)O; Dab = NCC[C@H](N)C(=O)O; X1 = O=C(C[*:2])[*:1]; X2 = O=C(C[*:1])[*:2]; βAla = NCCC(=O)O

Legend:
human integrin αvβ5 = human integrin αvβ5 (Homo sapiens, UniProt P06756+P18084); test: Evaluation of integrin binding property (surface plasmon resonance, Biacore 3000, immobilized cyclic peptide)
Outline: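 SPR with cyclic peptide amine-coupled via EDC/NHS to a CM5 chip, blank channel as reference. Integrin αvβ5 at 30, 100, 300 and 1,000 nM injected 10 min at 25 °C in HEPES buffer pH 7.4 with 5 mM MgCl2, 30 min buffer flow, EDTA regeneration; Kd from reference-subtracted signals, graded by category.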

[1] = Evaluation of molecule stability (alkali treatment, residual rate by LC/MS); format: physicochemical; conditions: for Performance evaluation: Stability (residual rate of cyclic peptide after alkali treatment): 500 μM peptide aqueous solution plus equivalent of 1 M sodium hydroxide, 15° C., 3 hours, LC/MS peak area; for Stability (molecule stability, residual rate of the cyclic peptide rank): alkali treatment, residual rate by LC/MS
Outline: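 500 μM aqueous cyclic peptide mixed with an equal volume of 1 M NaOH and held 3 h at 15 °C. Residual rate is total LC/MS peak area after treatment relative to untreated (100%), using a C18 column, pH 3 ammonium formate/acetonitrile gradient, 45 °C, ESI±.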

[2] = SPR, 25° C., HEPES buffer with 5 mM magnesium chloride, integrin 30-1,000 nM, read-out: Performance evaluation: Binding activity (dissociation constant between the cyclic peptide and human integrin αvβ5)
[3] = surface plasmon resonance, immobilized cyclic peptide, human integrin αvβ5, read-out: Binding activity (integrin binding property, dissociation constant rank)

Chain of human integrin αvβ5 (P06756 31-1048): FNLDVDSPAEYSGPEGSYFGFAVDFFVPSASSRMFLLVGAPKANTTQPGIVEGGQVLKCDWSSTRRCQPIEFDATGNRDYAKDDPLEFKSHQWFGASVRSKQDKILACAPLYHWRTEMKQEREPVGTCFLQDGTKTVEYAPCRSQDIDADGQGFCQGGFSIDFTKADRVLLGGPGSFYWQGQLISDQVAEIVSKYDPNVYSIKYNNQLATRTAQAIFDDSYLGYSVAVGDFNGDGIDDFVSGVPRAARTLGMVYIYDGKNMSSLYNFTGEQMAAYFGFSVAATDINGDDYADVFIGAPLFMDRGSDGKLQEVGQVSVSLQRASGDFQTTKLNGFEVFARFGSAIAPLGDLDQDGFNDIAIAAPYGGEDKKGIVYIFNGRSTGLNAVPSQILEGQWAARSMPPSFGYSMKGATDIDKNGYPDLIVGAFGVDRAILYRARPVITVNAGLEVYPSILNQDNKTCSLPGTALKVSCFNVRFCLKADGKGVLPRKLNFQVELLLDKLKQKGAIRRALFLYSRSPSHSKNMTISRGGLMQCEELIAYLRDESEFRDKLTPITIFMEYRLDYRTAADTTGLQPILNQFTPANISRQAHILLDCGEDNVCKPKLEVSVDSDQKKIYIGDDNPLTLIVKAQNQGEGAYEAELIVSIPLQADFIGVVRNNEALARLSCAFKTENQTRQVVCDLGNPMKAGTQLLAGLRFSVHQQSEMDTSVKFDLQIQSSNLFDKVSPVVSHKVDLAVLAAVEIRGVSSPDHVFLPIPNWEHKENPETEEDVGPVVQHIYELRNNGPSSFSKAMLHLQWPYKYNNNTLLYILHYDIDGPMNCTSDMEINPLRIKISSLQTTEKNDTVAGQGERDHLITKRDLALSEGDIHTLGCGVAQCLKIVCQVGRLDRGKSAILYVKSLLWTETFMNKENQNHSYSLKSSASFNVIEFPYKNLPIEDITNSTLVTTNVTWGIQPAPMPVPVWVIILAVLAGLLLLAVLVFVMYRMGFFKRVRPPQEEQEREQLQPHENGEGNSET
Chain of human integrin αvβ5 (P18084 24-799): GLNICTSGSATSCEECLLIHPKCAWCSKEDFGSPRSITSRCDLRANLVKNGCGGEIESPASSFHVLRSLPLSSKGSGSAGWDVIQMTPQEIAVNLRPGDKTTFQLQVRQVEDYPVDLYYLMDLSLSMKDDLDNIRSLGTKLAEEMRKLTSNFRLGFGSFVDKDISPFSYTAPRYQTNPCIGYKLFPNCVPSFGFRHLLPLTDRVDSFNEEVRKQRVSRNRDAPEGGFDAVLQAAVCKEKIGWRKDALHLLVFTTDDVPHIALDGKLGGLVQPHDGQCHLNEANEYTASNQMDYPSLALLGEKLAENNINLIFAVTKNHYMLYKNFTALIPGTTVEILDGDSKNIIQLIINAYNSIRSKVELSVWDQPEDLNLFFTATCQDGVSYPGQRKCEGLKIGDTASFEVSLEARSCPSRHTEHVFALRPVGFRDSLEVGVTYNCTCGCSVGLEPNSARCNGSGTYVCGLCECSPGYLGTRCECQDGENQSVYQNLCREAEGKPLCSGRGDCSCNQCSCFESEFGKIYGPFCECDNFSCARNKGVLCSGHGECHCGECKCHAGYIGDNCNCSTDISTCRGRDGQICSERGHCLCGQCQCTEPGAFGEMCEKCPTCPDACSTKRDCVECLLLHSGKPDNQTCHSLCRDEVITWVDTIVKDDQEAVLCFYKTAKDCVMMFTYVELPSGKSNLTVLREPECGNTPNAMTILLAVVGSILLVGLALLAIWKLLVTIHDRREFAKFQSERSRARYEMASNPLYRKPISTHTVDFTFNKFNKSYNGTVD

SMILES | Kd (human integrin αvβ5; [2]) [nM] | Kd (human integrin αvβ5; [3]) [nM] | Performance evaluation: Stability (residual rate of cyclic peptide after alkali treatment) [1] | Stability (molecule stability, residual rate of the cyclic peptide rank) [1]
CC[C@H](C)[C@@H]1NC(=O)[C@@H](NC(=O)[C@H](CCCCN)NC(=O)[C@H](CCCCN)NC(=O)[C@@H](N)CCCCN)CCSCC(=O)NCC[C@@H](C(=O)O)NC(=O)[C@H](CCCNC(=N)N)NC(=O)[C@H](Cc2ccccc2)NC(=O)[C@H](CC(N)=O)NC(=O)[C@H](CC(=O)O)NC(=O)CNC(=O)[C@H](CCCNC(=N)N)NC(=O)[C@@H]2CCCN2C1=O [Cyclic peptide 11, KKK-(Hcy)-IPRGDNFR(Dab(acetyl))] (H-KKK[hCys]IPRGDNFR[Dab]-OH; linker 4-13 via X2) | < 50 |  | A (The residual rate of the cyclic peptide is 70% or more.) | 
CC(C)C[C@@H]1NC(=O)[C@@H](NC(=O)CNC(=O)[C@H](CCCCN)NC(=O)[C@H](CCCCN)NC(=O)[C@@H](N)CCCCN)CCSCC(=O)NCC[C@@H](C(=O)N[C@@H](C)C(=O)O)NC(=O)[C@H](CCCNC(=N)N)NC(=O)[C@H](Cc2ccccc2)NC(=O)[C@H](CO)NC(=O)[C@H](CC(=O)O)NC(=O)CNC(=O)[C@H](CCCNC(=N)N)NC(=O)[C@@H]2CCCN2C1=O [Cyclic peptide 28, KKKG-(Hcy)-LPRGDSFR(Dab(acetyl))A] (H-KKKG[hCys]LPRGDSFR[Dab]A-OH; linker 5-14 via X2) | 50 to 100 |  | A (The residual rate of the cyclic peptide is 70% or more.) | 
C[C@H](NC(=O)[C@H](CCCCN)NC(=O)[C@H](CCCCN)NC(=O)[C@@H](N)CCCCN)C(=O)N[C@H]1CCSCC(=O)NCC[C@@H](C(=O)N[C@@H](CC(=O)O)C(=O)O)NC(=O)[C@H](CC(=O)O)NC(=O)[C@H](Cc2ccc(O)cc2)NC(=O)[C@H](CC(N)=O)NC(=O)[C@H](CC(=O)O)NC(=O)CNC(=O)[C@H](CCCNC(=N)N)NC(=O)[C@@H]2CCCN2C(=O)[C@H](CCC(=O)O)NC1=O [Cyclic peptide 35, KKKA-(Hcy)-EPRGDNYD(Dab(acetyl))D] (H-KKKA[hCys]EPRGDNYD[Dab]D-OH; linker 5-14 via X2) | 100 to 200 |  | A (The residual rate of the cyclic peptide is 70% or more.) | 
CC[C@H](C)[C@@H]1NC(=O)[C@@H](NC(=O)CNC(=O)[C@H](CCCCN)NC(=O)[C@H](CCCCN)NC(=O)[C@@H](N)CCCCN)CCSCC(=O)NCC[C@@H](C(=O)NCC(=O)O)NC(=O)[C@H](C)NC(=O)[C@H](Cc2ccccc2)NC(=O)[C@H](CO)NC(=O)[C@H](CC(=O)O)NC(=O)CNC(=O)[C@H](CCCNC(=N)N)NC(=O)[C@@H]2CCCN2C1=O [Cyclic peptide 95, KKKG-(Hcy)-IPRGDSFA(Dab(acetyl))G] (H-KKKG[hCys]IPRGDSFA[Dab]G-OH; linker 5-14 via X2) | < 50 |  | A (The residual rate of the cyclic peptide is 70% or more.) | 
CC[C@H](C)[C@@H]1NC(=O)[C@@H](NC(=O)CNC(=O)[C@H](CCCCN)NC(=O)[C@H](CCCCN)NC(=O)[C@@H](N)CCCCN)CCSCC(=O)NCC[C@@H](C(=O)N[C@@H](C)C(=O)O)NC(=O)[C@H](C)NC(=O)[C@H](Cc2ccccc2)NC(=O)[C@H]([C@@H](C)O)NC(=O)[C@H](CC(=O)O)NC(=O)CNC(=O)[C@H](CCCNC(=N)N)NC(=O)[C@@H]2CCCN2C1=O [Cyclic peptide 86, KKKG-(Hcy)-IPRGDTFA(Dab(acetyl))A] (H-KKKG[hCys]IPRGDTFA[Dab]A-OH; linker 5-14 via X2) | < 50 |  | A (The residual rate of the cyclic peptide is 70% or more.) | 
N=C(N)NCCC[C@@H]1NC(=O)[C@H](Cc2ccc(O)cc2)NC(=O)[C@H](CC(N)=O)NC(=O)[C@H](CC(=O)O)NC(=O)CNC(=O)[C@H](CCCNC(=N)N)NC(=O)[C@@H]2CCCN2C(=O)[C@H](CCC(=O)O)NC(=O)[C@@H](NC(=O)CCNC(=O)[C@H](CCCCN)NC(=O)[C@H](CCCCN)NC(=O)[C@@H](N)CCCCN)CCSCC(=O)NCC[C@@H](C(N)=O)NC1=O [Cyclic peptide 51, KKKβA-(Hcy)-EPRGDNYR(Dab(acetyl))] (H-KKK[βAla][hCys]EPRGDNYR[Dab]-NH2; linker 5-14 via X2) | 100 to 200 |  | A (The residual rate of the cyclic peptide is 70% or more.) | 
CC[C@H](C)[C@@H]1NC(=O)[C@@H](NC(=O)CNC(=O)[C@H](CCCCN)NC(=O)[C@H](CCCCN)NC(=O)[C@@H](N)CCCCN)CCSCC(=O)NCC[C@@H](C(=O)N[C@@H](C)C(=O)O)NC(=O)[C@H](Cc2ccccc2)NC(=O)[C@H]([C@@H](C)O)NC(=O)[C@H](CC(=O)O)NC(=O)CNC(=O)[C@H](CCCNC(=N)N)NC(=O)[C@@H]2CCCN2C1=O [Cyclic peptide 58, KKKG-(Hcy)-IPRGDTF(Dab(acetyl))A] (H-KKKG[hCys]IPRGDTF[Dab]A-OH; linker 5-13 via X2) | < 50 |  | A (The residual rate of the cyclic peptide is 70% or more.) | 

Now from value to compound, other results behind:

Kd (human integrin αvβ5; [2]) [nM] | Kd (human integrin αvβ5; [3]) [nM] | SMILES | Performance evaluation: Stability (residual rate of cyclic peptide after alkali treatment) [1] | Stability (molecule stability, residual rate of the cyclic peptide rank) [1]
 | < 50 | CC[C@H](C)[C@@H]1NC(=O)[C@@H](NC(=O)[C@H](CCCCN)NC(=O)[C@H](CCCCN)NC(=O)[C@@H](N)CCCCN)CCSCC(=O)NCC[C@@H](C(=O)O)NC(=O)[C@H](C)NC(=O)[C@H](Cc2ccccc2)NC(=O)[C@H](CO)NC(=O)[C@H](CC(=O)O)NC(=O)CNC(=O)[C@H](CCCNC(=N)N)NC(=O)[C@@H]2CCCN2C1=O [Cyclic peptide 101, KKK-(Hcy)-IPRGDSFA(Dab(acetyl))] (H-KKK[hCys]IPRGDSFA[Dab]-OH; linker 4-13 via X2) |  | A (The residual rate of the cyclic peptide is 70% or more.)
 | < 50 | CC[C@H](C)[C@@H]1NC(=O)[C@@H](NC(=O)CNC(=O)[C@H](CCCCN)NC(=O)[C@H](CCCCN)NC(=O)[C@@H](N)CCCCN)C(C)(C)SCC(=O)NCCC[C@@H](C(=O)N[C@@H](C)C(=O)O)NC(=O)[C@H](CCCNC(=N)N)NC(=O)[C@H](Cc2ccccc2)NC(=O)[C@H]([C@@H](C)O)NC(=O)[C@H](CC(=O)O)NC(=O)CNC(=O)[C@H](CCCNC(=N)N)NC(=O)[C@@H]2CCCN2C1=O [Cyclic peptide 130, KKKG-(Pen)-IPRGDTFR(Orn(acetyl))A] (H-KKKG[Pen]IPRGDTFR[Orn]A-OH; linker 5-14 via X2) |  | A (The residual rate of the cyclic peptide is 70% or more.)
 | < 50 | CC(C)[C@@H]1NC(=O)[C@@H](NC(=O)[C@H](C)NC(=O)[C@H](CCCCN)NC(=O)[C@H](CCCCN)NC(=O)[C@H](CCCCN)NC(=O)[C@H](CCCCN)NC(=O)[C@@H](N)CCCCN)CCSCC(=O)NCC[C@@H](C(=O)N[C@@H](C)C(=O)O)NC(=O)[C@H](C)NC(=O)[C@H](Cc2ccccc2)NC(=O)[C@H]([C@@H](C)O)NC(=O)[C@H](CC(=O)O)NC(=O)CNC(=O)[C@H](CCCNC(=N)N)NC(=O)[C@@H]2CCCN2C1=O [Cyclic peptide 111, KKKKKA-(Hcy)-VPRGDTFA(Dab(acetyl))A] (H-KKKKKA[hCys]VPRGDTFA[Dab]A-OH; linker 7-16 via X2) |  | A (The residual rate of the cyclic peptide is 70% or more.)
 | < 50 | CC(C)[C@@H]1NC(=O)[C@@H](NC(=O)[C@H](C)N)CCSCC(=O)NCC[C@@H](C(=O)N[C@@H](C)C(=O)O)NC(=O)[C@H](C)NC(=O)[C@H](Cc2ccccc2)NC(=O)[C@H]([C@@H](C)O)NC(=O)[C@H](CC(=O)O)NC(=O)CNC(=O)[C@H](CCCNC(=N)N)NC(=O)[C@@H]2CCCN2C1=O [Cyclic peptide 125, A-(Hcy)-VPRGDTFA(Dab(acetyl))A] (H-A[hCys]VPRGDTFA[Dab]A-OH; linker 2-11 via X2) |  | A (The residual rate of the cyclic peptide is 70% or more.)
 | < 50 | C[C@@H]1NC(=O)[C@H](Cc2ccccc2)NC(=O)[C@H]([C@@H](C)O)NC(=O)[C@H](CC(=O)O)NC(=O)CNC(=O)[C@H](CCCNC(=N)N)NC(=O)[C@@H]2CCCN2C(=O)[C@H](CCC(=O)O)NC(=O)[C@@H](NC(=O)[C@H](CCCCN)NC(=O)[C@H](CCCCN)NC(=O)[C@@H](N)CCCCN)CCSCC(=O)NCC[C@@H](C(=O)O)NC1=O [Cyclic peptide 145, KKK-(Hcy)-EPRGDTFA(Dab(acetyl))] (H-KKK[hCys]EPRGDTFA[Dab]-OH; linker 4-13 via X2) |  | A (The residual rate of the cyclic peptide is 70% or more.)
 | 50 to 100 | CC[C@H](C)[C@@H]1NC(=O)[C@@H](NC(=O)[C@H](C)NC(=O)[C@H](CCCCN)NC(=O)[C@H](CCCCN)NC(=O)[C@@H](N)CCCCN)CCNC(=O)CSCC[C@@H](C(=O)N[C@@H](C)C(=O)O)NC(=O)[C@H](C)NC(=O)[C@H](Cc2ccccc2)NC(=O)[C@H](CO)NC(=O)[C@H](CC(=O)O)NC(=O)CNC(=O)[C@H](CCCNC(=N)N)NC(=O)[C@@H]2CCCN2C1=O [Cyclic peptide 124, KKKA(Dab(acetyl))IPRGDSFA-(Hcy)-A] (H-KKKA[Dab]IPRGDSFA[hCys]A-OH; linker 5-14 via X1) |  | A (The residual rate of the cyclic peptide is 70% or more.)
